Legend:
HT-H cells [1] = assay: Activation of HT-H cells, monomeric versus branched peptide; format: cell-based, human
HT-H cells [2] = assay: Western blot for tyrosine phosphorylated proteins, HT-H cells; format: cell-based, human; conditions: serum-depleted medium, 30 min
Experimental: (§1) Tyrosine phosphorylated proteins were detected by anti-phosphotyrosine antibody (4G10, mouse IgG). HT-H cells and A431 cells were grown in 10 cm plates to semi confluency, incubated in phosphorylation medium with GWRQ peptide (GWRQ-MAP; 2 μg/ml) at 4° C. for 15 min, and stimulated for phosphorylation at 37° C. for 0 min 120 min. Control HT-H cells were treated in the same manner without GWRQ peptide. HT-H cells were harvested using rubber policemen, collected by centrifugation, and washed once with cold PBS. Cells were lysed with 0.5% NP-40 in PBS containing phosphatase inhibitors (30 mM NaF, 40 mM β-glycerophosphate, 20 mM Na pyrophosphate, and 1 mM Na2VO4) and protease inhibitors (2 mM EGTA, 5 mM EDTA, 1 mM phenylmethylsulfonylfluoride, 3 mM benzamidine, 5 μM pepstatin A, 10 μM leupeptin). Western blot was carried out as described above.
(§2) Screening of phosphorylated proteins by phospho specific antibodies was carried out by Kinexus, Vancouver, B. C., Canada. HT-H cells and A431 cells grown as monolayers were serum starved by culturing in medium lacking FCS for 2 days. Cells were incubated in phosphorylation medium without FCS and then stimulated at 37° C. for 0 min˜120 min in medium containing recombinant human EGF (20 ng/ml) with or without GWRQ peptide.

ErbB4 [3] = assay: Tyrosine kinase activity assay of anti-ErbB4 immunoprecipitates, A431 cells; format: cell-based; conditions: GWRQ peptide 5 μg/ml, EGF 20 ng/ml
Experimental: (§3) A431 cells and HT-H cells were cultured in 10 cm plate to sub-confluency.
(§4) Medium was replaced with DME without FCS, and cells were cultured for 3 days without FCS by exchanging medium every day. To HT-H or A431 monolayer kept at 4° C., Na3VO4 was added to 1 mM. GWRQ peptide (5 μg/ml) and/or recombinant human EGF (20 ng/ml) was added to each plate, and left at 4° C. for 30 min. Cells were harvested by rubber policeman, and washed with cold PBS. Cells were lysed in PBS containing 1% NP-40, and cell lysate was subjected to immunoprecipitation with 20 & I protein A beads pre-coated with control IgG or with rabbit anti-ErbB4 antibody (Sant Cruz Biotechnology). Immunoprecipitates were washed with cold PBS and suspended in cold PBS. A polyvinylchloride ELISA plate (Falcon) was coated with tyrosine kinase substrate poly EY (Sigma) in PBS (1 μg/100 μl) at 4° C. for 20 hours. After washing the plate, each immunoprecipitate as triplicate was added to each well in 100 & I kinase assay buffer (50 mM Hepes buffer, pH 7.4, 20 mM MgCl2, 1 mM MnCl2 2 mM Na3VO4, and 0.4 mM ATP), and reacted at room temperature for 30 min. […] After washing wells with TBS, peroxidase substrate ABTS (Pierce) was added and developed color was read in an ELISA reader at 405 mm.

ErbB4 [4] = assay: Tyrosine kinase activity assay of anti-ErbB4 immunoprecipitates, HT-H cells; format: cell-based, human; conditions: GWRQ peptide 5 μg/ml, EGF 20 ng/ml
Experimental: as §3, §4

A431 cells = assay: Western blot for tyrosine phosphorylated proteins, A431 cells; format: cell-based; conditions: serum-depleted medium, 30 min
Experimental: as §1, §2

monomeric GWRQ peptide: a single linear GWRQ peptide
concentration needed to activate HT-H cells (HT-H cells [1]): 200 to 500 µg/mL | efficiency relative to octameric branched GWRQ peptide (GWRQ-MAP) (HT-H cells [1]; less efficiency): about 100 times

EGF: recombinant human EGF (NSDSECPLSHDGYCLHDGVCMYIEALDKYACNCVVGYIGERCQYRDLKWWELR)
EGFR / tyrosine phosphorylation in HT-H cells (HT-H cells [2]): no detectable EGFR phosphorylation | ErbB4 kinase activity in A431 cells (ErbB4 [3]): activated | ErbB4 kinase activity in HT-H cells (ErbB4 [4]): activated | EGFR / tyrosine phosphorylation in A431 cells (A431 cells): caused EGFR phosphorylation

From patent US8097588B2, “Trophinin-binding peptides and uses thereof” (Sanford-Burnham Medical Research Institute, priority 2007, dated 2012)
